For one assay, the system named is PC3 cells. In words: WST-1 cell proliferation assay (Compound 1, rapamycin). As to conditions: read-out: Compound 1 Growth Inhibition IC50; PC3, 3 days. The format is cell-based, human. The method, then:
All test wells were in triplicate on the plate and in a final volume of 200 μL. The final concentration of DMSO in all wells was 0.2%. […] All growth inhibition experiments were repeated on different occasions at least twice. Potency was determined from calculating the IC50 value from the data describing the growth inhibition curve. A reference compound was included in each plate assay to monitor inter-assay variation and the IC50 from the reference was used as part of the acceptance criteria for the assay.
Next, compound was added to the designated well at a dilution of 1:10 (i.e., 20 μL of the diluted compound was added to 180 μL of culture media in each well). The final dilution of compound was 1:500 which yielded a final DMSO concentration of 0.2% in each well. All concentrations were performed in triplicate. […] Absorbance was measured at 450 nm on the VICTOR™ X2 multilabel plate reader (PerkinElmer).
Raw data was saved as a text file and then entered into Activity Base (Cell-based SAR; Prolif-MTT, MTT-6pt-5plates unfixed fit. Version2). The software (XLfit from IDBS) calculated the percent inhibition at each compound concentration by normalizing to the DMSO control values for each set of triplicate wells. Percent inhibition curves were plotted and IC50 values calculated.
(§1) All data was analyzed using XLfit from IDBS. […]
(Tetrazolium dyes change colour on reduction, which living cells bring about.)

Another assay relates to S6RP(S235/S236). As to the kind of experiment: Phospho-S6RP(S235/S236) in PC3 cell lysates, MSD. As to conditions: PC3, 1 hour exposure; read-out: p-S6RP(S235/S236) IC50. The assay is classed as cell-based, human.
Source text: The direct substrate for TORC1 was 4E-BP 1(T46) and indirect downstream substrate was S6RP(S235/S236). The direct substrate for TORC2 was Akt(S473) and indirect downstream substrates measured were GSK3β(S9) and PRAS40(T246). Additionally, the phosphorylation status of Akt(T308), a phosphorylation site for PDK1 was monitored.
MSD® biomarker detection assays provide a rapid and convenient method for measuring the total and phosphorylated levels of protein targets within a single small volume sample. These assays are available in both single-plex and multiplex formats. In a single-plex assay, an antibody for a specific protein target is coated on one electrode (or spot) per well. […] MSD Read Buffer that provides the appropriate chemical environment for ECL is added and the plate is read using an MSD SECTOR™ Imager. […] The instrument measures intensity of the emitted light to afford a quantitative measure of the amount of phosphorylated Akt or S6RP present in the sample. […]
The assay plate was incubated with 150 μL of MSD Blocker A Solution for 1 hour with shaking at room temperature. […] Then 150 μL of 1×MSD Read Buffer T was added to each well. The plate was read on the SECTOR Imager plate reader. The Excel data was transferred to Activity Base and IC50 values were calculated.
as §1

The subject of another assay is AKT (T308). As to the kind of experiment: Phospho-AKT (T308) in PC-3 cell lysates, MSD (Compound 2). The format is cell-based. As to conditions: Homo sapiens; PC-3, 1 hour; read-out: PDK1 AKT (T308) IC50. The method, then:
The direct substrate for mTORC1 was 4E-BP1(T46) and the indirect downstream substrate was S6RP (S235/S236). The direct substrate for mTORC2 was AKT (S473) and the indirect downstream substrates measured were GSK3β(S9) and PRAS40 (T246). Additionally, the phosphorylation status of AKT (T308), a phosphorylation site for PDK1, was monitored. Concentration-response curves were plotted and IC50 values determined. Cells were plated in 96-well flat bottom plates at the required density (PC-3 cells/well) and the cells were allowed to equilibrate at 37° C., 5% CO2 overnight. […] After the incubation period, the culture media was removed carefully with an aspirator. The plate was placed on ice and 50 μL of 1× Tris Lysis Buffer was added to each well. The plate was placed on a shaker at 4° C. for 1 hour to lyse the cells. At that point, the plate was either frozen at -80° C. for later analysis or immediately assayed for phosphoproteins as described below. To monitor interassay variability, a reference standard was included in the assay for PC-3 cells and the coefficient of variation for assay of […]) was 9.3% (n=50) and for assay of p-AKT (S473) was 28.6% (n=50). The assay plate was incubated with 150 μL of MSD Blocking Buffer for 1 hour with shaking at room temperature. […] Then 150 μL of 1×MSD Read Buffer T was added to each well. The plate was read on the SECTOR Imager plate reader.

In another assay the test system is PC3 tumors. As to the kind of experiment: Apoptosis TUNEL assay in PC3 tumors (Compound 2). The assay is classed as in vivo, SCID mice. As to conditions: 5 mg/kg oral QD for 6 days, data not shown.

`CO[C@H]1CC[C@H](N2C(=O)CNc3ncc(-c4ccc(C(C)(C)O)nc4)nc32)CC1` [Compound 1, 7-(6-(2-hydroxypropan-2-yl)pyridin-3-yl)-1-((1r,4r)-4-methoxycyclohexyl)-3,4-dihydropyrazino-[2,3-b]pyrazin-2(1H)-one]: the IC50 in the assay on PC3 cells is 110 nM; in the assay on S6RP(S235/S236), 20 nM.
With `CCN1C(=O)CNc2ncc(-c3ccc(-c4nc[nH]n4)nc3C)nc21` [Compound 2, 1-ethyl-7-(2-methyl-6-(1H-1,2,4-triazol-3-yl)pyridin-3-yl)-3,4-dihydropyrazino[2,3-b]pyrazin-2(1H)-one], the IC50 with AKT (T308) was found to be 48 nM. Besides, the “number of TUNEL-positive cells vs vehicle” value in the assay on PC3 tumors is “No significant change”.

(Values after patent publication US20140113904A1, “TREATMENT OF CANCER WITH TOR KINASE INHIBITORS” (SIGNAL PHARMACEUTICALS, LLC, priority 2012, published 2014).)
